Source: patent US12225917B2 (priority 2017, dated 2025)
“And” between values parts separate entries of the source, which are not always exact repeats. Identical values can stand only once. Like-named read-outs stand apart in the source and are kept apart here.

How the values were obtained:
[1] = tested on: Eimeria species; design: species or system commercial meat chickens; conditions: in vivo
[2] = Example 3: intestinal health scores based on Tierlynck et al. 2011 (dysbacteriosis, gross gut pathology); type: in vivo, commercial meat chickens
From the text: […] General gut quality (looking for enteritis) was also visually assessed at that point.
This is a scoring system aimed at quantifying the level of dysbacteriosis present in a group of birds, attributing scores for certain grossly visible abnormalities. Higher total scores (maximum 10) reflect a higher level of dysbacteriosis, although this may be compromised if coccidiosis is present. For our purposes, the intestinal scores simply reflect gross gut pathology.

[3] = General safety in broilers reared to market weight by histology (Example 8); type: in vivo, broiler chickens; conditions: histology D42
From the text: This study evaluates the safety of IRP001 chloride in broilers through examination of histology.
The objective of this study was to test the general safety of IRP001 chloride in broilers reared to market weight by examination of histology.
The experiment consisted of the following treatments (1 pen per treatment, Table 54).
Birds were kept in a pen having an area of 4×10=40 ft^2, with clean wood shavings as bedding with a thickness of approximately 4 inches. The pen had 5 feet high side walls with a bottom 1 ½ feet being of solid wood to prevent bird migration.
The temperature of the building was monitored. Environmental conditions during the trial (temperature) were appropriate (optimum) to the age of the animals. Illumination was provided by fluorescent bulbs placed above the pens. The diets were provided ad libitum in one tube-type feeder per pen. From D0 until D7, feed was also supplied on a tray placed on the litter of each pen. Water was provided ad libitum from one Plasson drinker per pen.
Standard floor pen management practices were used throughout the experiment. Animals and housing facilities were inspected twice daily, observing and recording the general health status, constant feed and water supply as well as temperature, removing all dead birds, and recognizing unexpected events. Birds found dead during the study were noted on the Daily Mortality Record, and were not replaced. Pen number, the date of mortality, sex, weight, and diagnosis were recorded.
Day of hatch male Cobb chicks were obtained and ten male broiler chicks were placed in each pen. Accountabilities of all test animals and any extra birds were recorded on animal disposition form. The birds were sexed at the hatchery. The breeder flock history and vaccination record at the hatchery were recorded. Bird weights by pen were recorded on D0 and 42.
All weights were by pen. Treatment Starter feed was fed from D0 to 21. On D21, non-consumed Starter was weighed by pen and discarded. Grower feed was issued and fed until D35. On D35, non-consumed Grower was weighed by pen and discarded. Finisher feed was fed until D42. On D42, non-consumed Finisher was weighed by pen and discarded.
On the day of study completion (D42), five birds from each pen were humanly euthanized and upper, mid and lower gut sections plus liver lobe were collected and stored in neutral buffered formalin. Theses samples were shipped for analysis.

[4] = tested on: Clostridium Perfringens (type A strain EHE-NE36); conditions: for median lesion scores: relative to nil-treatment; for small intestinal lesion scores: relative to nil treatment groups
[5] = in vivo
[6] = tested on: Clostridium Difficile; experiment: In vitro MIC and MBC against Clostridium difficile (Example 6); type: cell-based
[7] = tested on: Clostridium Perfringens
[8] = Feed palatability, feed and water consumption and bird productivity study (Example 2): feed intake, water intake, bodyweight, FCR; type: in vivo, broiler chickens
From the text: A follow-up study to determine the feed palatability, feed and water consumption and bird productivity following incorporation of a single formulation of IRP001 hemisulfate salt (unmasked) when offered to broiler chickens in-feed or in-water. The study explores the optimal treatment regime in terms of treatment start date.
Phase 1: On receipt, two hundred and seventy (270) day-old commercial broiler chickens were allocated sequentially as they are received into sixteen (16) individual floor pens, each of 16 or 17 birds, on Day 0.
Phase 2: On receipt, the ninety (90) day-old commercial broiler chickens were allocated sequentially as they are received into four (4) individual floor pens, each of 22 or 23 birds, on Day 22.
Feed intake, water intake, weight gain and mortality were used as outcome parameters.
Individual daily feed intake and individual daily water intake data by pen and then by treatment group were calculated for Phases 1 and 2 (and for the entire trial for the birds in Group/Pen 2, 15 and 16 that continue through both Phases) using figures for total feed and water provided each day to each pen divided by the number of birds in each pen. Where errors in weighing, feeding/watering or recording (or other unexplained losses of feed and water) had occurred means were adjusted by using the mean value for the same pen on the 1-2 days either side of the apparent error. Similarly, group mean bodyweights were calculated for Phase 1 using total weight/total no. birds for Day 0 and individual weights from Days 7, 14, 21, 28, 35 and 42. Total (individual) feed consumed was calculated per treatment and feed conversion ratios per treatment calculated using the expression: total (individual) feed/total (individual) weight gain. […]

[9] = broilers in a production environment
[10] = NE challenge, IVP 0.1 g/L In-water, Groups 7, 8
[11] = NE challenge, IVP 0.2 g/kg In-feed, Group 11
[12] = NE challenge, IVP 1.0 g/L In-water, Groups 9, 10
[13] = NE challenge, IVP 2.0 g/kg In-feed, Group 12
[14] = Necrotic Enteritis, IVP water 1.0 g/L, line 'Mean' of Groups 9 and 10
[15] = Necrotic Enteritis, IVP water 1.0 g/L, per isolator, Groups 9 and 10
[16] = Nil Challenge, IVP water 1.0 g/L, line 'Mean' of Groups 3 and 4
[17] = Nil Challenge, IVP water 1.0 g/L, per isolator, Groups 3 and 4
[18] = Nil challenge, IVP 1.0 g/L In-water, Groups 3, 4

COc1ccc2cc3[n+](cc2c1OC)CCc1cc2c(cc1-3)OCO2 [IRP001 chloride, berberine chloride]
coccidiosis lesion scores in duodenum, jejunum and total gut [1]: highest lesion scores | oocyst counts in faeces [1]: numerically lower than the controls | total gut coccidiosis lesion scores [1]: significantly reduced total gut lesion scores | translucency score in the upper intestine and undigested feed particles in the rectum ([2]; 21 days, higher two levels 0.3 and 0.1 g/kg, compared with controls and 0.03 g/kg): reduced translucency score in the upper intestine and the presence of undigested feed particles in the rectum | total intestinal health scores compared with the controls ([2]; 28 days, 0.3 g/kg in feed, P=0.06): approached significance | gastrointestinal tract (GIT) histologic lesions [3, 9]: within normal limits | liver histologic lesions [3, 9]: within normal limits | Cumulative Pathology and Enteritis scores ([3]; versus control Treatment 1 Nil group): equal or lower than the control | Median Duodenal Lesion Score (0 absent to 4 severe) [4, 10]: 4 | Median Ilial Lesion Score (0 absent to 4 severe) [4, 10]: 4 | Median Jejunal Lesion Score (0 absent to 4 severe) [4, 10]: 4 | Median Duodenal Lesion Score (0 absent to 4 severe) [4, 11]: 4 | Median Ilial Lesion Score (0 absent to 4 severe) [4, 11]: 4 | Median Jejunal Lesion Score (0 absent to 4 severe) [4, 11]: 4 | Median Duodenal Lesion Score (0 absent to 4 severe) [4, 12]: 1 | Median Ilial Lesion Score (0 absent to 4 severe) [4, 12]: 1 | Median Jejunal Lesion Score (0 absent to 4 severe) [4, 12]: 1 | Median Duodenal Lesion Score (0 absent to 4 severe) [4, 13]: 1 | Median Ilial Lesion Score (0 absent to 4 severe) [4, 13]: 1 | Median Jejunal Lesion Score (0 absent to 4 severe) [4, 13]: 1 | Mortalities prior to autopsy ([4]; Necrotic Enteritis, IVP feed 0.2 g/kg, Group 11): 9 | Mortalities prior to autopsy ([4]; Necrotic Enteritis, IVP feed 2 g/kg, Group 12): 2 | Mortalities prior to autopsy ([4]; Necrotic Enteritis, IVP water 0.1 g/L, per isolator, Groups 7 and 8, listed as IVP): 10 | Mortalities prior to autopsy [4, 14]: 0 | Mortality % [4, 14]: 0% | Mortalities prior to autopsy [4, 15]: 0 | Mortality % [4, 15]: 0% | Mortalities prior to autopsy [4, 16]: 0 | Mortality % [4, 16]: 0% | Mortalities prior to autopsy [4, 17]: 0 | Mortality % [4, 17]: 0% | Median Duodenal Lesion Score (0 absent to 4 severe) [4, 18]: 0 | Median Ilial Lesion Score (0 absent to 4 severe) [4, 18]: 0 | Median Jejunal Lesion Score (0 absent to 4 severe) [4, 18]: 0 | Feed per bird over period 0-14 days [5]: 485^B g/bird and 513^A g/bird and 512^A g/bird | Feed per bird over period 0-21 days [5]: 1186^B g/bird and 1227^AB g/bird and 1240^AB g/bird | Feed per bird over period 0-28 days [5]: 1957 g/bird and 2037 g/bird and 2049 g/bird | Feed per bird over period 0-42 days [5]: 4121 g/bird and 4247 g/bird and 4305 g/bird | Mean Weight Gain over period 0-7 days [5]: 113 gm and 121 gm and 119 gm | Mean Weight Gain over period 8-14 days [5]: 320^C gm and 334^A gm and 343^A gm | Mean Weight Gain over period 15-21 days [5]: 491^B gm and 517^A gm and 528^A gm | Mean Weight Gain over period 22-28 days [5]: 593 gm and 618 gm and 600 gm | Mean Weight Gain over period 29-42 days [5]: 1324 gm and 1341 gm and 1436 gm | Mean live weight at 0 days [5]: 41 gm | Mean live weight at 7 days [5]: 160 gm | Mean live weight at 21 days [5]: 923^C gm | growth rates throughout the experiment [5]: statistically similar to the control group | live weight to the end of the experiment (day 42) [5]: remained significantly lighter than all other groups | mean live weight at 14 days [5]: significantly lower weights than the negative control

CN[C@H](CC(C)C)C(=O)N[C@H]1C(=O)N[C@@H](CC(N)=O)C(=O)N[C@H]2C(=O)N[C@H]3C(=O)N[C@H](C(=O)N[C@H](C(=O)O)c4cc(O)cc(O)c4-c4cc3ccc4O)[C@H](O)c3ccc(c(Cl)c3)Oc3cc2cc(c3O[C@@H]2O[C@H](CO)[C@@H](O)[C@H](O)[C@H]2O[C@H]2C[C@](C)(N)[C@H](O)[C@H](C)O2)Oc2ccc(cc2Cl)[C@H]1O [Vancomycin, reference compound]
MIC [6]: within the expected range | MIC [7]: within the expected range

berberine hemisulfate [IRP001 sulfate]
bodyweight ([8]; Phase 1+2, Pen 2 untreated vs 15/16 treated in-water Day 6-42, pair-wise comparison p<0.05): no significant difference | bodyweight ([8]; Phase 1, unmasked treatment via drinking water (1.0 g per L) over varying periods): did not appear to affect | bodyweight ([8]; Phase 2, treatment in-feed (2.0 g per kg of feed)): did not appear to affect | median lesion scores ([4]; NE challenged broilers, 0.1 g/L in-water): no reduction in median lesion scores | Mortalities prior to autopsy ([4]; NE challenged broilers, 0.1 g/L in-water, versus nil-treatment): not significantly different | median lesion scores ([4]; NE challenged broilers, 0.2 g/kg in-feed): no reduction in median lesion scores | Mortalities prior to autopsy ([4]; NE challenged broilers, 0.2 g/kg in-feed, versus nil-treatment): not significantly different | small intestinal lesion scores ([4]; NE challenged broilers, 1.0 g/L in-water): substantial reduction in small intestinal lesion scores | Mortalities prior to autopsy ([4]; NE challenged broilers, 1.0 g/L in-water, relative to nil-treatment and low-dose groups): significant reduction in mortalities | small intestinal lesion scores ([4]; NE challenged broilers, 2.0 g/kg in-feed): substantial reduction in small intestinal lesion scores | Mortalities prior to autopsy ([4]; NE challenged broilers, 2.0 g/kg in-feed, relative to nil-treatment and low-dose groups): significant reduction in mortalities | inhibition of growth at 62.5 μg/ml ([7]; Necrotic Enteritis strain of C. perfringens, 62.5 μg/ml): partial inhibition of growth | MIC ([7]; Necrotic Enteritis strain of C. perfringens, test agent Berberine sulfate, purity 98.0%): 125 µg/mL
